In ChEMBL document CHEMBL1158196, “Isolation and synthesis of novel farnesyl protein transferase inhibitors, valinoctins A and B, from Streptomyces strain MJ858-NF3” (J Nat Prod, 1996):
≈ marks a conversion by molar mass, not a printed value.

Test: Inhibition of bovine brain FPTase after 20 mins
Parameters: species or system Bos taurus

| IC50 | Compound |
| --- | --- |
| 0.9 µg/mL (≈ 3.28 µM) | CCCCC[C@@H](N)[C@H](O)C(=O)N[C@H](C(=O)O)C(C)C [VALINOCTIN A] |
| 1 µg/mL (≈ 3.47 µM) | CCC(C)CC[C@@H](N)[C@H](O)C(=O)N[C@H](C(=O)O)C(C)C (some centres not stated) [VALINOCTIN B] |
